Experimental data from US9079866B2, “Flap modulators” (JANSSEN PHARMACEUTICA NV, priority 2013, dated 2015).
Where a name gives a salt, the structure may show the parent alone.

molecular target: human FLAP (Homo sapiens (Human), UniProt P20292); test: FLAP binding assay (HTRF format); conditions: wild type FLAP, HTRF format
Procedure: The ability of the compounds of the present invention to treat a FLAP-mediated disease and/or disorder, or associated symptoms or complications thereof, was determined using the following procedures. Binding assay data represent the average value obtained from two different assay plates, with samples run in duplicate on each plate. Human whole blood assay data represent a single replicate on an assay plate using whole blood from at least one healthy donor.
Data are expressed as a HTRF ratio.

human FLAP, sequence (P20292 whole entry): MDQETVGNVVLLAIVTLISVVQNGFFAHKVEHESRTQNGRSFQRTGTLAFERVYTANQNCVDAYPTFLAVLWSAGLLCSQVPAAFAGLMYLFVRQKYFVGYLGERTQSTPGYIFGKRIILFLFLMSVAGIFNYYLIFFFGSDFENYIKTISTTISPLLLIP

Row | Compound | Ki
1 | CC(C)(C)NS(=O)(=O)c1ccccc1-c1ccc(-c2cn3cc(C#N)ccc3n2)c(F)c1 [Example 585, N-tert-Butyl-4′-(6-cyanoimidazo[1,2-a]pyridin-2-yl)-3′-fluorobiphenyl-2-sulfonamide] | > 10 µM
2 | CC(C)(C)NS(=O)(=O)c1ccccc1-c1ccc(-c2cn3cc(C(F)(F)F)ccc3n2)c(F)c1 [Example 586, N-tert-Butyl-3′-fluoro-4′-[6-(trifluoromethyl)imidazo[1,2-a]pyridin-2-yl]biphenyl-2-sulfonamide] | > 10 µM
3 | CCOC(=O)c1cccc2nc(-c3ccc(-c4ccccc4S(=O)(=O)NC(C)(C)C)cc3F)cn12 [Example 587, Ethyl 2-[2′-(tert-butylsulfamoyl)-3-fluorobiphenyl-4-yl]imidazo[1,2-a]pyridine-5-carboxylate] | > 10 µM
4 | Cc1cc(-c2ccccc2S(C)(=O)=O)ccc1-c1cnc(N)cn1 [Example 590, 5-[3-Methyl-2′-(methylsulfonyl)biphenyl-4-yl]pyrazin-2-amine] | > 10 µM
5 | Cc1cc(-c2ccccc2S(=O)(=O)N(C)C)ccc1-c1cnc(N)cn1 [Example 591, 4′-(5-Aminopyrazin-2-yl)-N,N,3′-trimethylbiphenyl-2-sulfonamide] | ~2.49 µM
6 | CC(C)(C)NS(=O)(=O)c1ccccc1-c1ccc(-c2ccc3c(c2)CC(=O)N3)c(F)c1 [Example 595, N-tert-Butyl-3′-fluoro-4′-(2-oxo-2,3-dihydro-1H-indol-5-yl)biphenyl-2-sulfonamide] | ~2.49 µM
7 | CC(C)(C)NS(=O)(=O)c1ccccc1-c1ccc(-c2ccc3[nH]c(=O)[nH]c(=O)c3c2)c(F)c1 [Example 596, N-tert-Butyl-4′-(2,4-dioxo-1,2,3,4-tetrahydroquinazolin-6-yl)-3′-fluorobiphenyl-2-sulfonamide] | > 10 µM
8 | CC(C)(C)NS(=O)(=O)c1ccccc1-c1ccc(-c2cnc(N)c(C(=O)O)n2)c(F)c1 [Example 598, 3-Amino-6-[2′-(tert-butylsulfamoyl)-3-fluorobiphenyl-4-yl]pyrazine-2-carboxylic acid] | > 10 µM
9 | CCN(CC)C(=O)CS(=O)(=O)c1ccccc1-c1ccc(-c2cnc(N)nc2)c(F)c1 [Example 600, 2-{[4′-(2-Aminopyrimidin-5-yl)-3′-fluorobiphenyl-2-yl]sulfonyl}-N,N-diethylacetamide] | > 10 µM
10 | Nc1cnc(-c2ccc(-c3ccccc3OC3CCNCC3)cc2F)cn1 [Example 630, 5-[3-Fluoro-2′-(piperidin-4-yloxy)biphenyl-4-yl]pyrazin-2-amine] | 1.9 µM
11 | Nc1ncc(-c2ccc(-c3ccccc3OCC(=O)O)cc2F)cn1 [Example 644, {[4′-(2-Aminopyrimidin-5-yl)-3′-fluorobiphenyl-2-yl]oxy}acetic acid] | > 10 µM
12 | Nc1cnc(-c2ccc(-c3cccnc3OCCO)cc2F)cn1 [Example 650, 2-({3-[4-(5-Aminopyrazin-2-yl)-3-fluorophenyl]pyridin-2-yl}oxy)ethanol] | 0.832 µM
13 | C[C@H](CO)Oc1ncccc1-c1ccc(-c2cnc(N)nc2)c(F)c1 [Example 658, (2I)-2-({3-[4-(2-Aminopyrimidin-5-yl)-3-fluorophenyl]pyridin-2-yl}oxy)propan-1-ol] | 0.572 µM
14 | CS(=O)(=O)Nc1ccccc1-c1ccc(-c2ccc(N)nc2)c(F)c1 [Example 659, N-(4′-(6-Aminopyridin-3-yl)-3′-fluoro-[1,1′-biphenyl]-2-yl)methanesulfonamide] | ~0.75 µM
15 | CNS(=O)(=O)c1ccccc1-c1ccc(-c2ccc(N)nc2)c(F)c1 [Example 661, 4′-(6-Aminopyridin-3-yl)-3′-fluoro-N-methyl-[1,1′-biphenyl]-2-sulfonamide] | ~2.49 µM
16 | Nc1ccc(-c2ccc(-c3ccccc3S(N)(=O)=O)cc2F)cn1 [Example 662, 4′-(6-Aminopyridin-3-yl)-3′-fluoro-[1,1′-biphenyl]-2-sulfonamide trifluoroacetate] | ~1.22 µM
17 | CC(C)(C)NS(=O)(=O)c1ccccc1-c1ccc(-c2cnc(N)nc2C#N)c(F)c1 [Example 703, 4′-(2-Amino-4-cyanopyrimidin-5-yl)-N-tert-butyl-3′-fluorobiphenyl-2-sulfonamide] | > 10 µM
18 | Nc1ncc(-c2ccc(-c3ccccc3S(=O)(=O)CCNC(=O)c3ccccc3)cc2F)cn1 [Example 716, N-(2-{[4′-(2-Aminopyrimidin-5-yl)-3′-fluorobiphenyl-2-yl]sulfonyl}ethyl)benzamide] | > 10 µM
19 | Nc1cc(S(=O)(=O)c2ccccc2-c2ccc(-c3cnc(N)nc3)c(F)c2)ncn1 [Example 721, 5-{2′-[(6-Aminopyrimidin-4-yl)sulfonyl]-3-fluorobiphenyl-4-yl}pyrimidin-2-amine] | > 10 µM
20 | Nc1ccnc(S(=O)(=O)c2ccccc2-c2ccc(-c3cnc(N)nc3)c(F)c2)n1 [Example 722, 5-{2′-[(4-Aminopyrimidin-2-yl)sulfonyl]-3-fluorobiphenyl-4-yl}pyrimidin-2-amine] | > 10 µM
21 | Nc1ncc(-c2ccc(-c3ccccc3S(=O)(=O)c3ccnc(N)n3)cc2F)cn1 [Example 724, 4-{[4′-(2-Aminopyrimidin-5-yl)-3′-fluorobiphenyl-2-yl]sulfonyl}pyrimidin-2-amine] | > 10 µM
22 | Nc1cnc(-c2ccc(-c3ccccc3S(=O)(=O)c3cc(N)ncn3)cc2F)cn1 [Example 726, 6-{[4′-(5-Aminopyrazin-2-yl)-3′-fluorobiphenyl-2-yl]sulfonyl}pyrimidin-4-amine] | 0.904 µM

Next, values leading:

Row | Ki | Compound
23 | > 10 µM | CS(=O)(=O)c1ccccc1-c1ccc(-c2cnc(N)cn2)cc1 [Example 589, 5-[2′-(Methylsulfonyl)biphenyl-4-yl]pyrazin-2-amine]
24 | > 10 µM | Nc1cnc(-c2ccc(-c3ccccc3S(N)(=O)=O)cc2O)cn1 [Example 592, 4′-(5-Aminopyrazin-2-yl)-3′-hydroxybiphenyl-2-sulfonamide]
25 | > 10 µM | CS(=O)(=O)Nc1ccccc1-c1ccc(-c2cnc(N)cn2)cc1 [Example 593, N-[4′-(5-Aminopyrazin-2-yl)biphenyl-2-yl]methanesulfonamide]
26 | > 10 µM | Nc1cnc(-c2ccc(-c3ccccc3S(N)(=O)=O)cc2)cn1 [Example 594, 4′-(5-Aminopyrazin-2-yl)biphenyl-2-sulfonamide]
27 | > 10 µM | NC(=O)CS(=O)(=O)c1ccccc1-c1ccc(-c2cnc(N)nc2)c(F)c1 [Example 599, 2-{[4′-(2-Aminopyrimidin-5-yl)-3′-fluorobiphenyl-2-yl]sulfonyl}acetamide]
28 | > 10 µM | Nc1ncc(-c2ccc(-c3ccccc3S(=O)(=O)CC(=O)N3CCOCC3)cc2F)cn1 [Example 601, 5-{3-Fluoro-2′-[(2-morpholin-4-yl-2-oxoethyl)sulfonyl]biphenyl-4-yl}pyrimidin-2-amine]
29 | 0.336 µM | Nc1cnc(-c2ccc(-c3ccccc3OCCO)cc2F)cn1 [Example 628, 2-{[4′-(5-Aminopyrazin-2-yl)-3′-fluorobiphenyl-2-yl]oxy}ethanol]
30 | 0.836 µM | Nc1ncc(-c2ccc(-c3ccccc3OCCO)cc2F)cn1 [Example 629, 2-{[4′-(2-Aminopyrimidin-5-yl)-3′-fluorobiphenyl-2-yl]oxy}ethanol]
31 | > 10 µM | Nc1ncc(-c2ccc(-c3ccccc3OC3CCNCC3)cc2F)cn1 [Example 631, 5-[3-Fluoro-2′-(piperidin-4-yloxy)biphenyl-4-yl]pyrimidin-2-amine]
32 | > 10 µM | NCCOc1ccccc1-c1ccc(-c2cnc(N)nc2)c(F)c1 [Example 641, 5-[2′-(2-Aminoethoxy)-3-fluorobiphenyl-4-yl]pyrimidin-2-amine]
33 | > 10 µM | Nc1ncc(-c2ccc(-c3cccnc3OCCO)cc2F)cn1 [Example 649, 2-({3-[4-(2-Aminopyrimidin-5-yl)-3-fluorophenyl]pyridin-2-yl}oxy)ethanol]
34 | > 10 µM | Nc1ncc(-c2ccc(-c3ccccc3C(=O)N3CCOCC3)cn2)cn1 [Example 677, 5-{5-[2-(Morpholin-4-ylcarbonyl)phenyl]pyridin-2-yl}pyrimidin-2-amine]
35 | > 10 µM | COc1ccccc1-c1ccc(-c2cnc(N)nc2)nc1 [Example 678, 5-[5-(2-Methoxyphenyl)pyridin-2-yl]pyrimidin-2-amine]
36 | > 10 µM | Nc1ncc(-c2ccc(-c3ccccc3S(=O)(=O)C3CC3)cn2)cn1 [Example 691, 5-{5-[2-(Cyclopropylsulfonyl)phenyl]pyridin-2-yl}pyrimidin-2-amine trifluoroacetic acid salt]
37 | ~1.41 µM | N#Cc1ccccc1-c1ccc(-c2cnc(N)cn2)c(F)c1 [Example 701, 4′-(5-Aminopyrazin-2-yl)-3′-fluorobiphenyl-2-carbonitrile]
38 | ~0.304 µM | Nc1cnc(-c2ccc(-c3ccccc3N3CCNC3=O)cc2F)cn1 [Example 702, 1-(4′-(5-Aminopyrazin-2-yl)-3′-fluoro-[1,1′-biphenyl]-2-yl)imidazolidin-2-one]
39 | > 10 µM | Nc1ncc(-c2ccc(-c3ccccc3S(=O)(=O)c3ncccn3)cc2F)cn1 [Example 718, 5-[3-Fluoro-2′-(pyrimidin-2-ylsulfonyl)biphenyl-4-yl]pyrimidin-2-amine]
40 | > 10 µM | Nc1ncc(-c2ccc(-c3ccccc3S(=O)(=O)c3cnccn3)cc2F)cn1 [Example 719, 5-[3-Fluoro-2′-(pyrazin-2-ylsulfonyl)biphenyl-4-yl]pyrimidin-2-amine]
41 | > 10 µM | Nc1ncc(-c2ccc(-c3ccccc3S(=O)(=O)c3ccncn3)cc2F)cn1 [Example 720, 5-[3-Fluoro-2′-(pyrimidin-4-ylsulfonyl)biphenyl-4-yl]pyrimidin-2-amine]
42 | > 10 µM | Nc1cnc(S(=O)(=O)c2ccccc2-c2ccc(-c3cnc(N)nc3)c(F)c2)cn1 [Example 723, 5-{2′-[(5-Aminopyrazin-2-yl)sulfonyl]-3-fluorobiphenyl-4-yl}pyrimidin-2-amine]
43 | 1.3 µM | Nc1cncc(S(=O)(=O)c2ccccc2-c2ccc(-c3cnc(N)nc3)c(F)c2)n1 [Example 725, 5-{2′-[(6-Aminopyrazin-2-yl)sulfonyl]-3-fluorobiphenyl-4-yl}pyrimidin-2-amine]
